{"source": "patent US20100041103A1", "about": "“COMPOSITION AND METHOD FOR ENHANCING CELL GROWTH AND CELL FUSION” (DO-COOP TECHNOLOGIES LTD., priority 2007, published 2010)", "key": {"[1]": {"experiment": "Dissolving CD-Dau, Daunorubicine and t-boc (Example 9)", "type": "physicochemical", "experimental": "5 different glass vials were prepared: • 1. 5 mg CD-Dau+1.2 ml Neowater™. • 2. 1.8 mg CD-Dau+600 μl acetone. • 3. 1.8 mg CD-Dau+150 μl acetone+450 μl Neowater™ (25% acetone). • 4. 1.8 mg CD-Dau+600 μl 10% *PEG (Polyethylene Glycol). • 5. 1.8 mg CD-Dau+600 μl acetone+600 μl Neowater™.\nThe samples were vortexed and spectrophotometer measurements were performed on vials #1, 4 and 5\nThe vials were left opened in order to evaporate the acetone (vials #2, 3, and 5).\n2 mg Daunorubicine+1 ml Neowater™ was prepared in one vial and 2 mg of Daunorubicine+1 ml RO was prepared in a second vial.\n1.14 ml of EtOH was added to one glass vial containing 18.5 mg of t-boc (an oily material). This was then divided into two vials and 1.74 ml Neowater™ or RO water was added to the vials such that the solution comprised 25% EtOH. Following spectrophotometer measurements, the solvent was evaporated from the solution and Neowater™ was added to both vials to a final volume of 2.31 ml in each vial. The solutions in the two vials were merged to one clean vial and packaged for shipment under vacuum conditions."}, "[2]": {"details": "cited from earlier work"}, "[3]": {"experiment": "Dissolving retinol in Neowater, absorbance and filtration (Example 12)", "type": "physicochemical", "experimental": "Retinol (vitamin A) was purchased from Sigma (Fluka, 99% HPLC). Retinol was solubilized in Neowater™ under the following conditions.\n1% retinol (0.01 gr in 1 ml) in EtOH and Neowater™\n0.5% retinol (0.005 gr in 1 ml) in EtOH and Neowater™\n0.5% retinol (0.125 gr in 25 ml) in EtOH and Neowater™.\n0.25% retinol (0.0625 gr in 25 ml) in EtOH and Neowater™. Final EtOH concentration: 1.5%\nAbsorbance spectrum of retinol in EtOM: Retinol solutions were made in absolute EtOH, with different retinol concentrations, in order to create a calibration graph; absorbance spectrum was detected in a spectrophotometer.\n2 solutions with 0.25% and 0.5% retinol in Neowater with unknown concentration of EtOH were detected in a spectrophotometer. Actual concentration of retinol is also unknown since some oil drops are not dissolved in the water.\nFiltration: 2 solutions of 0.25% retinol in Neowater™ were prepared, with a final EtOH concentration of 1.5%.The solutions were filtrated in […] filter."}, "[4]": {"experiment": "Taxol in Neowater by slow solvent exchange, spectrophotometry and HPLC after storage (Example 18)", "type": "physicochemical", "details": "taxol dispersed in Neowater, 6 month storage at −20° C., HPLC", "experimental": "Solubilization: 0.5 mM Taxol solution was prepared (0.0017 gr in 4 ml). Taxol was dissolved in ethanol and exchanged to Neowater™ using an RT slow solvent exchange procedure which extended for 20 days. […] The solution was sterilized using a 0.2 μm filter. Taxol was separately prepared in DMSO (0.5 mM). Both solutions were kept at −20° C. Absorbance was detected with a spectrophotometer."}, "[5]": {"experiment": "Solubilization of taxol in DMSO or Neowater with 17% EtOH (Example 15)", "type": "physicochemical", "details": "0.5 mM; Neowater with 17% EtOH", "experimental": "Solubilization: 0.5 mM Taxol solution was prepared (0.0017 gr in 4 ml) in either DMSO or Neowater™ with 17% EtOH. Absorbance was detected with a spectrophotometer."}, "293T cells": {"tested_on": "293T cells", "experiment": "Cell viability assay, trypan blue count after taxol", "type": "cell-based", "details": "taxol dissolved in Neowater, 1.666 μM, 24 hour treatment", "experimental": "Cell viability assay: 150,000 293T cells were seeded in a 6 well plate with 3 ml of DMEM medium. Each treatment was grown in DMEM medium based on RO or Neowater™. […] The cells were harvested following a 24 hour treatment with taxol and counted using trypan blue solution to detect dead cells."}, "[6]": {"experiment": "Solubilization of peptides in Neowater (Example 11)", "type": "physicochemical", "details": "at 0.5 mM", "text": "Spectrophotometric measurements were taken."}}, "note": "Counter-ions that a name gives are not always drawn. Ends that are not written are not given here."}
{"compound": "COc1cccc2c1C(=O)c1c(O)c3c(c(O)c1C2=O)C[C@@](O)(C(C)=O)C[C@@H]3O[C@H]1C[C@H](N)[C@H](O)[C@H](C)O1", "note": "[Daunorubicine, Cerubidine hydrochloride]", "values": [{"measurement": "dissolving in Neowater and RO", "setting": "[1]; 2 mg in 1 ml", "result": "dissolves without difficulty"}, {"measurement": "solubility in water (known)", "setting": "[2]", "result": "known not to dissolve in water"}]}
{"compound": "CC1=C(/C=C/C(C)=C/C=C/C(C)=C/CO)C(C)(C)CCC1", "note": "[Retinol]", "values": [{"measurement": "retinol in the solutions following filtration", "setting": "[3]; 0.25% retinol in Neowater, 1.5% EtOH, filtered (0.44 and 0.2 filter)", "result": "less than 0.03125%"}, {"measurement": "retinol concentration in EtOH with similar absorbance pattern", "setting": "[3]; nominal 0.25% retinol in Neowater", "result": "~0.03125", "unit": "%"}, {"measurement": "retinol concentration in EtOH with similar absorbance pattern", "setting": "[3]; nominal 0.5% retinol in Neowater", "result": "~0.125", "unit": "%"}]}
{"compound": "CC(=O)O[C@H]1C(=O)[C@@]2(C)[C@H]([C@H](OC(=O)c3ccccc3)[C@]3(O)C[C@H](OC(=O)[C@H](O)[C@@H](NC(=O)c4ccccc4)c4ccccc4)C(C)=C1C3(C)C)[C@]1(OC(C)=O)CO[C@@H]1C[C@@H]2O", "note": "[Taxol, Paclitaxel]", "values": [{"measurement": "structural changes of the formulation on storage", "setting": "[4]", "result": "no structural changes"}, {"measurement": "dissolving in DMSO and Neowater", "setting": "[5]", "result": "dissolved both in DMSO and Neowater™"}, {"measurement": "cytotoxic effect", "setting": "293T cells", "result": "comprised a cytotoxic effect"}]}
{"compound": "Daidzein—daunomycin conjugate [CD-Dau]", "values": [{"measurement": "dissolving, Vial #3 (25% acetone)", "setting": "[1]; 1.8 mg + 150 μl acetone + 450 μl Neowater", "result": "didn't dissolve very well"}, {"measurement": "dissolving, Vial #4 (10% PEG+Neowater)", "setting": "[1]; 1.8 mg + 600 μl 10% PEG", "result": "dissolved better than the CD-Dau in vial #1"}, {"measurement": "dissolving, Vial #2 (100% acetone)", "setting": "[1]; 1.8 mg + 600 μl acetone", "result": "suspended inside the acetone"}, {"measurement": "dissolving, Vial #5 (acetone exchanged for Neowater)", "setting": "[1]; 1.8 mg + 600 μl acetone + 600 μl Neowater, as the acetone evaporated", "result": "partially sediment to the bottom of the vial"}, {"measurement": "dissolving, Vial #1 (100% Neowater)", "setting": "[1]; 5 mg + 1.2 ml Neowater", "result": "sedimented after a few hours"}, {"measurement": "solubility in water (known)", "setting": "[2]", "result": "known not to dissolve in water"}]}
{"compound": "PFPSYKLRPG-NH2", "values": [{"measurement": "dissolving in Neowater", "setting": "[6]", "result": "dissolved"}]}
